Entries after “also recorded” stand apart in the source; their conditions may differ.
Columns and labels:
EPO-R modulating domain = target: T1, EPO-R modulating domain (Homo sapiens, UniProt P19235); details: cited from earlier work
T1 sequence (P19235 25-508): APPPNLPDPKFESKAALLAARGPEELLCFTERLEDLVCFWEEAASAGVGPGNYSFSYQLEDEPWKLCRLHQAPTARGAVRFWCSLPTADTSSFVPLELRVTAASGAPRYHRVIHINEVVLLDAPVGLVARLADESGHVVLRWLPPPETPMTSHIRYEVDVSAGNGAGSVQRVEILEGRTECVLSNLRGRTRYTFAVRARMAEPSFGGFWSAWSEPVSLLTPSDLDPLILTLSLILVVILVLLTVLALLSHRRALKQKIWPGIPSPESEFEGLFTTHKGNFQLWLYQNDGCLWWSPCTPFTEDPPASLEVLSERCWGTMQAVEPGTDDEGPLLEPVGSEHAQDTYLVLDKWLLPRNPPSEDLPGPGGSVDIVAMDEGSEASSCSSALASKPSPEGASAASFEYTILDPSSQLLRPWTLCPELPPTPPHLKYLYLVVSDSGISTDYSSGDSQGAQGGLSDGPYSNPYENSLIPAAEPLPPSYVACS

[1] = tested on: cortical neurons isolated from embryonic day 18 rats; experiment: glutamate-induced neuronal death in cultured cortical neurons; assay type: cell-based, rat; details: 24 hours pre-treatment, 300 uM glutamate for 24 hours
Protocol: Primary cultured cells were used as a model to evaluate the subject small molecule effect on CNS. Glutamate neurotoxicity can be most directly studied using neurons prepared from the brain at the late embryonic stage and subsequently cultured for maturation. To examine the effect of the subject small molecules (E5A24 and E5A29) on glutamate-induced neuronal death, cortical neurons isolated from embryonic day 18 rats, were cultured for 10 days. Subsequently, neurons were treated for 24 hours with or without the subject small molecules, and further exposed to 300 uM glutamate for 24 hours. After glutamate was washed out, the cells were cultured for another 24 hours. During the glutamate challenge and subsequent culture, the subject small molecules were absent. Finally, the cell viability was examined.

[2] = tested on: carboplatin-treated 8 week old C57BL mice; experiment: Carboplatin induced anemia model (hematocrit); assay type: in vivo, mouse
Protocol: Mice were treated with Carboplatin agent (available from Sigma, used regularly in chemotherapy) and a drop in hematocrit was induced. […] (FIGS. 9-11)
Determination of Effect of Non-peptide EPO-R Binding Small Molecule on Hematocrit in Carboplatin-Induced Anemia in 8 Week C57BI Male Mice
Preparation of injection solutions: Vehicle—Saline with 0.1 mg/mL BSA; Add 30 mg of BSA to 300 mL Saline; Vacuum filter under sterile conditions in laminar flow hood; Aliquot the saline (0.1 mg/mL BSA) solution into mini-sorp tubes. At least 41×7 mL aliquots should be prepared. Place caps on the tubes and store refrigerated at 4° C.;
Carboplatin—Dose of 120 mg/kg: Calculations for single injection given to 36 male mice (8 wks old˜25 g): […]×0.025 kg×36 mice=108 mg; Injections are delivered i.p. in a volume of 0.5 cc/mouse=0.5 cc/mouse×36 mice=18 cc; Carboplatin at 6 mg/mL for 36 mice: 108 mg/18 cc.; 120 mg/20 cc; On day of injection, add 120 mg carboplatin (Sigma #C2538) to 20 cc saline in a 100 cc beaker containing a stirring bar. Cover beaker with parafilm. Mix until the carboplatin has completely dissolved.
11 nmole/kg/mouse/day×0.025 kg×12 mice=3.3 nmoles/day; Injections are delivered i.p. in a volume of 0.5 cc/mouse/day=0.5 cc/mouse/day×12 mice=6 cc/day; non-peptide EPO-R binding small molecule for […]: 3.3 nmoles/6 cc each day: 3.85 nmole/7 cc each day; non-peptide EPO-R binding small molecule aliquot at 2 mM=2 nmole/uL; 3.85 nmole per day in 7 cc (0.55 nmole/mL); Therefore: 3.85 nmole divided by 2 nmole/uL stock=1.925 uL at 2 mM; Prepare in advance at least 10 aliquots of non-peptide EPO-R binding small molecule at 2 mM in small microfuge tubes, each with a volume of 2 uL. Freeze these aliquots; On each day of injections, add 1 thawed aliquot of the non-peptide EPO-R binding small molecule at 2 mM containing a 2 uL volume to a tube containing 7 cc of sterile saline (0.1 mg/mL BSA). […]

TF-1 and UT-7 cells = experiment: biological testing in cell lines (cell proliferation assay and cell signaling assay); assay type: cell-based
Text: Compounds identified in the initial screen were further tested for their biological activity in two assays: a cell proliferation assay and a cell signaling assay in TF-1 and UT-7 cells. The hit rate in cell proliferation was 0.16%; hit rate in cell signaling was 0.25%.
At the end of the biological testing in cell lines TF-1 and UT-7, E4, E5, E5 analogs and E6 molecules were some of the compounds identified as showing the best activity.
Compounds identified in the initial screen were further tested for their biological activity in two assays: a cell proliferation assay and a cell signaling assay in TF-1 cells. The hit rate in cell proliferation was 0.16%; hit rate in cell signaling was 0.25%.
At the end of the biological testing in cell line, E4, E5, E5 analog, and E6 molecules were some of the compounds identified as showing the best activity.

[3] = tested on: Mouse or human bone marrow cells; experiment: Formation of erythroid colonies (CFU-e, BFU-e) from bone marrow in methylcellulose; assay type: cell-based; details: mouse and human bone marrow
Protocol: Mouse or human bone marrow cells were stimulated in methylcellulose for 7 days (mouse) or 14 days (human) with non-peptide EPO-R modulators. Formation of erythroid colonies was observed. (See FIGS. 6 to 8)
(1) Dilute human bone marrow 1:1 with sterile PBS. (2) Slowly layer bone marrow into 50 ml tubes containing 20 ml of LSM Lymphocyte separation medium (ICN/Cappel—cat #50494). 50 ml bone marrow will yield 2 tubes. (3) Spin tubes at 2000 rpm for 30 minutes with brake off. (4) Slowly take out the middle layer using a 10 ml pipette and transfer into a new 50 ml tube. (5) Add PBS +0.5% BSA +5 mM EDTA to tube for washing. (6) Spin tube for 5 minutes at speed 4 with brake on. (7) Repeat wash step 2 more times. (8) After 3rd wash, resuspend pellet in SF Iscoves' MDM medium. (9) Count by diluting cells in 3% acetic acid. (10) Dilute cells to desired concentration (5×10^5 cells/ml) and seed onto methylcellulose.
(1) Tubes containing 3.0 ml of methylcellulose medium (Stemcell Technology, cat #H4230) supplemented with 50 ng/ml hSCF are prepared. (Alternatively the methylcellulose could be supplemented with 50 ng/ml hSCF, 20 ng/ml of hIL-3 and hIL-6). (2) Compounds or EPO of desired concentrations are added to the tubes. […] Colonies are scored on day twelve.
Bone marrow cells were isolated from mouse femurs. […] The colonies were scored on day seven. […]

[4] = tested on: Bcl-xL protein in UT-7 and TF-1 cells; experiment: up-regulation of Bcl-xL expression (immunoprecipitation, western blot); assay type: cell-based
Protocol: When the subject compounds were tested for anti-apoptotic effect was evaluated, these antibodies were used: Anti-Bcl-XL/s antibody (Santa Cruz Biotechnology, SC-1041), Anti-Bcl-XL antibody (Santa Cruz Biotechnology, SC8392)
A number of molecules of the subject invention were evaluated in in vitro systems that reflect the condition of cerebral ischemia and metabolic stress. Firstly, it is known that one of the mechanisms by which EPO prevents neuronal apoptosis is by up-regulating the expression levels of Bcl-x1 protein, which is a well-described anti-apoptotic protein. Thus, cells-lines that are known to be EPO responsive (UT-7 and TF-1, used in previous studies) were used as a cellular system to examine the small molecules' anti-apoptotic activity through EPO-R.
The evaluation was performed by starving the cells, stimulating the cells with compounds at appropriate concentrations (or no stimulation for control samples) and immunoprecipitating the cell lysates with antibody specific to both forms (short and long) of Bcl-xL protein. The amount of Bcl-xL (long protein form, known to have anti-apoptotic activity) protein was evaluated by western blot analysis.

[5] = tested on: P-19 cells (a neural-like embryonal carcinoma cell line); experiment: anti-apoptotic effect in P-19 cells upon withdrawal of serum; assay type: cell-based; details: treated 24 hours prior to serum withdrawal; serum withdrawn for 48 hours
Protocol: Experiments were performed according to the described protocol. The anti-apoptotic effect of the subject small molecules was evaluated in P-19 cells (a neural-like embryonal carcinoma cell line) that undergo apoptosis upon withdrawal of serum. Briefly, cells were treated with small molecules for 24 hours prior to serum withdrawal. Serum was withdrawn for 48 hours in the presence or absence of a subject small molecule (EM5 and E5A24). At the end of that period, cell survival was evaluated. […] This Figure is representative of the experiment and of the subject small molecules. The experiments were performed according to literature procedures (Siren et. al., Proc. Nat. Acad. Sci. 98, 4044, 2001). Cell survival was determined according to the protocol described for cellular proliferation.

Compound: QRVEILEGRTECVLSNLRGRTRY (listed as Homo sapiens) [SEQ ID NO:1]
- modulation of the activity of the EPO-R (EPO-R modulating domain): modulation of the activity of the EPO-R in the presence or absence of the ligand

Compound: Cc1n[nH]c2c1C(c1ccco1)C1=C(CC(C)(C)CC1=O)N2 (stereo not drawn) [Compound E5A29]
- cell survival / glutamate induced neuronal death [1]: prevented glutamate induced neuronal death in a dose-responsive manner; also recorded: increased cell survival
- increase of cell survival after glutamate challenge [1]: 60%

Compound: Cn1ncc(S(=O)Oc2ccccc2)c(Cl)c1=O (stereo not drawn) [Compound E6]
- cooperative effect with EPO on hematocrit levels ([2]; compound given i.p.): cooperative effect
- hematocrit levels in animals treated with carboplatin ([2]; mouse, in vivo): restore hematocrit levels
- maximum activity compared to EPO natural hormone (TF-1 and UT-7 cells; cell line (TF-1 cells)): maximum activity comparable to that of the maximum activity of EPO
- maximum activity compared to EPO natural hormone (TF-1 and UT-7 cells; cell lines TF-1 and UT-7, in the presence of low levels of EPO): maximum activity comparable to that of the maximum activity of EPO
- CFU-e formation compared with EPO [3]: stimulate CFU-e formation to the same extent as EPO

Compound: Cc1cc(NCC2CC2)n2nc(Nc3cc(Cl)ccc3C)nc2n1 [EM5]
- Bcl-xL expression ([4]; TF-1 cells): up-regulation of Bcl-xL expression
- Bcl-xL expression ([4]; UT-7 cells): up-regulation of Bcl-xL expression
- up-regulation of Bcl-xL protein ([4]; both cell lines (UT-7 and TF-1)): induced up-regulation of Bcl-xL protein in a dose-responsive manner
- cell survival / viability after withdrawal of serum [5]: protect cells from apoptosis; also recorded: increased cell viability
